Measured values taken from patent publication US10501800B2, “Breast cancer prognosis” (Regents of the University of Minnesota, priority 2012, dated 2019).
“Also recorded” adds a separate entry of the source.

Tests used:
PR protein expression = assay: Western blotting for PR in doxorubicin-treated T47D cells expressing inducible PR (PARP cleavage assay); assay type: cell-based, human; conditions: doxorubicin 8 uM, 24 h
Protocol: Poly (ADP)-ribose polymerase 1 (PARP) cleavage assays were used to measure the level of apoptosis in cell cultures after treatment with cytotoxic concentrations of doxorubicin. T47D cells expressing inducible PR were plated in 10 cm dishes (2×10^6 cells/dish) in cMEM and induced with AP21967 (10^−9 M). Cells were washed, induced, and serum starved for 4 d. Cells were then treated with R5020 (10^−8M) for 6 h before adding doxorubicin (8 uM) to dishes for 24 h. Protein was harvested using standard RIPA lysis buffer, subjected to SDS-PAGE and western blotting using cleaved-PARP and PR antibodies. Beta-actin western blotting was performed for sample loading controls.

[1] = system: T47D cells expressing inducible PR (iWT, iKR); assay: MTT proliferation assay in T47D cells expressing inducible PR; assay type: cell-based, human; conditions: cells expressing iWT or iKR PRs vs un-induced or untreated counterparts; R5020
Protocol: Cell proliferation was measured using MTT assays (3-[4,5-dimethylthiazol-2-yl]-2,5-diphenyltetrazolium bromide, Sigma catalog #M2128). In 24-well plates, 1×10^4 cells/well were plated in cMEM (inducible PR expression was induced with AP21967 (10^−9 M) for 2 days), cells were washed and steroid starved in modified IMEM supplemented with 5% dextran-coated charcoal-treated (DCC) FBS for 1 day before the addition of R5020 (10^−8 M). At days 0, 2, 4, 6, cell proliferation was determined by adding 60 ul MTT (5 mg/ml) to each 0.5 ml cell culture well for 3 hours, medium was carefully removed and solublization solution (90% v/v DMSO/PBS) was added to lyse the cells. Lysate absorbance (650 and 570 nm) was measured using a plate reader. 650 nm measurements were subtracted from 570 nm measurements and sample means were normalized to day zero.

[2] = system: PR target genes (CHN2, RGS2, ACOT6) in BT-474 human breast cancer cells; assay: RT-qPCR of PR target genes in BT-474 cells, with or without MEK inhibitor; assay type: cell-based
Protocol: For reverse transcription quantitative polymerase chain reaction (RT-qPCR) assays, 5×10^5 cells/well were plated in 6-well dishes, serum starved in modified IMEM for 1 day before treatments (see individual figures). RNA was extracted using TriPure reagent (Roche, catalog #11667157001) and cDNA was created using the Transcriptor cDNA first-strand cDNA synthesis kit (Roche, catalog #04897030001). Relative expression levels were determined by qPCR assays performed on a Roche LightCycler II using SYBR green master-mix (Roche, catalog #04887352001). Target gene quantification levels were normalized to the expression of standard housekeeper genes: TBP, ACTB, and/or GAPDH. For cells expressing inducible PR, the protocol was the same as above, except prior to ligand treatments, the cells were induced with AP21967 (10^−9 M) for 2 d.
For experiments using MEK inhibitors, BT-474 cells were plated in […] dishes at 5×10^5 cells/well. One day later, the cells were washed and serum starved in modified IMEM for 1d. These cells were pre-treated with the MEK inhibitor U0126 (5 uM, EMD Chemicals, catalog #662005) for 30 min R5020 (10^−8 M) and/or RU486 (10^−7 M) was then added to cell culture wells for 6 h before RNA/protein isolation and RT-qPCR/western blotting was performed, as described above.

[3] = system: RGS2 expression in T47D cells expressing WT PR or KR PR; assay: RT-qPCR of PR target genes in T47D cells stably expressing WT or KR PR; assay type: cell-based, human; conditions: R5020 6 h
Protocol: (§1) T47Dco parental cell lines were characterized previously (Horwitz et al., 1982). T47D cells stably expressing PR were created by molecular cloning of cDNAs encoding either WT, K388R, S294A, or K388R/S294A PR into a pIRES-neo3 expression vector (Clontech, catalog #631621), followed by transfection of vectors into T47D-Y cells (Sartorius et al., 1994) using FuGENE HD (Roche, catalog #04709713001). Single-cell clones were expanded under high G418 selection (500 ug/ml) and maintained in low G418 selection (200 ug/ml) (EMD Chemicals, catalog #345810). These cells were maintained in complete minimal essential medium (cMEM) supplemented with 5% fetal bovine serum (FBS), 1% non-essential amino acids (NEAA), 1% penicillin/streptomycin, 6 ng/ml insulin (CellGro, catalog #10-010-CV). T47D cells expressing inducible PR were described previously (Hagan et al., 2011). […]
For reverse transcription quantitative polymerase chain reaction (RT-qPCR) assays, 5×10^5 cells/well were plated in 6-well dishes, serum starved in modified IMEM for 1 day before treatments (see individual figures). […] Relative expression levels were determined by qPCR assays performed on a Roche LightCycler II using SYBR green master-mix (Roche, catalog #04887352001). Target gene quantification levels were normalized to the expression of standard housekeeper genes: TBP, ACTB, and/or GAPDH. […]

[4] = system: PR Ser294 phosphorylation; assay: Western blotting for PR Ser294 phosphorylation in BT-474 cells; assay type: cell-based, human
Protocol: as §1, with “2011). Inducible PR expression was achieved by adding AP21967 (10^−9 M, Ariad Pharmaceuticals, Cambridge, Mass.) to cell culture medium for a minimum treatment time of 2 d. MCF-7 cell lines expressing PR were created by transfection of pIRES-neo3 vectors containing cDNA inserts encoding either WT or KR PR into cells using FuGENE HD. Single-cell clones were expanded under high G418 selection and maintained in low G418 selection.” for “2011).”

[5] = system: PR target genes in T47D cells expressing WT PR, SUMO-deficient PR (KR) or empty vector; assay: Gene expression profiling (Illumina HT-12v4) of T47D cell lines treated with progesterone or antiprogestins; assay type: cell-based, human; conditions: for expression of progesterone-regulated PR target genes: T47D cells expressing SUMO-deficient PR (KR), antiprogestin 10^−7 M alone or plus progesterone 10^−8 M
Protocol: T47D cells stably expressing pIRES-neo3 empty vector, WT or KR PR were serum starved in modified IMEM (Gibco, catalog #A10488) for 1 day, treated with R5020 (10^−8 M) or vehicle control for 6 h before RNA extraction using a RNeasy kit (QIAgen, catalog #74104). Six h of progestin treatment allowed for substantial PR-dependent gene expression as compared to prior studies (Jacobsen et al., 2005; Richer et al., 2002). DNase I treated (QIAgen, catalog #79254) RNA samples from duplicate experiments were prepared for expression analysis using the Illumina HT-12v4 bead chip platform according to manufacture's protocols. Data were analyzed within R software using the Bioconductor (Gentleman et al., 2004) package called lumi where raw intensities were log2 transformed and quantile normalized. Differentially expressed genes were analyzed using the limma package, where empirical Bayes was used to better estimate the variance of the genes. Gene expression data presented contain log2 normalized intensities and biological comparisons presented (e.g. R5020/vehicle) contain log2 fold change with the Benjamini and Hochberg (BH) adjusted P value (Benjamini and Hochberg, 1995). To generate the heat map in FIG. 1C, unsupervised hierarchical clustering of genes was carried out using heatmap. 2 function in the R package gplots. Clustering was performed using Euclidean distance and complete linkage. Rows were scaled to have mean zero and standard deviation equal to one.
Gene expression profiles in T47D cell lines treated with antiprogestins were obtained using identical methods as described above, except for these notable differences. After serum starvation, cells stably expressing empty vector, WT, or KR PR were treated for 6 hours under one of eight possible conditions: (1) ethanol (vehicle control), (2) progesterone (10^−8 M), (3) RU486 (10^−7 M), (4) aglepristone (10^−7 M), (5) onapristone (10^−7 M), (6) RU486 (10^−7 M) plus progesterone (10^−8 M), (7) aglepristone (10^−7 M) plus progesterone (10^−8 M), or (8) onapristone (10^−7 M) plus progesterone (10^−8 M). Gene expression levels were measured, normalized, analyzed, and heat maps were generated using the methods described above.
Raw microarray data from two independent microarray experiments (both performed using the Illumina HT-12v4 platform described above) were combined and normalized together within R software using the Bioconductor (Gentleman et al., 2004) package called lumi where raw intensities were log 2 transformed and quantile normalized.
Sample Sizes & Composition: For the first analysis, two KR cell replicates were used that had been stimulated with R5020 a synthetic progestin in the first experiment and three KR cell replicates that had been stimulated with progesterone in the second experiment. The same was accomplished regarding the corresponding WT cell replicates. Pertaining to the first analysis, therefore, a sample size of n=5 was used for each of the two groups (KR & WT). Regarding the second analysis, we used three KR cell replicates that had been co-treated with progesterone plus onapristone in the second experiment; and we used three WT cell replicates that had been co-treated with progesterone plus onapristone also in the second experiment (n=3 for each of the two groups). Regarding the third analysis, we used three KR cell replicates that had been co-treated with progesterone plus RU486 in the second experiment; and we used three WT cell replicates that had been co-treated with progesterone plus RU486 also in the second experiment (n=3 for each of the two groups). Regarding the fourth analysis, three KR cell replicates was used that had been co-treated with progesterone plus onapristone; and three WT cell replicates were used that had been treated with vehicle control (ethanol) (n=3 for each of the two groups). […]

[6] = system: MAP1A and RGS2 mRNA in T47D cells stably expressing WT PR; assay: RT-qPCR with epidermal growth factor (EGF) treatment in T47D cells expressing WT PR; assay type: cell-based, human
Protocol: For RT-qPCR assays involving epidermal growth factor (EGF) treatment, cells were plated at 5×10^5 cells/well in 6-well dishes and serum starved for 2 days in modified IMEM. Cells were pre-treated with 100 ng/ml EGF (Sigma, catalog #E9644) before treatment with R5020 (10^−8 M).

[7] = pre-treatment with U0126 5 uM for 30 min

Compound: COc1cccc2c1C(=O)c1c(O)c3c(c(O)c1C2=O)C[C@@](O)(C(=O)CO)C[C@@H]3O[C@H]1C[C@H](N)[C@H](O)[C@H](C)O1 [Doxorubicin, doxorubicin]
- WT and KR PR protein expression (PR protein expression): reduced

Compound: CCC(=O)[C@@]1(C)CC[C@H]2[C@@H]3CCC4=CC(=O)CCC4=C3CC[C@@]21C [R5020]
- cell growth [1]: grew faster
- ACOT6 expression ([2]; R5020 10^−8 M, 6 h): induced
- upregulation of CHN2 mRNA ([2]; R5020 10^−8 M, 6 h): 17 fold
- upregulation of RGS2 mRNA ([2]; R5020 10^−8 M, 6 h): 26 fold
- RGS2 expression response to R5020 ([3]; T47D cells expressing KR PR): ~20 fold
- RGS2 expression response to R5020 ([3]; T47D cells expressing WT PR): ~2 fold
- PR-B Ser294 phosphorylation ([4]; R5020 treatment): elevated

Compound: N#CC(=C(/N)Sc1ccccc1N)/C(C#N)=C(\N)Sc1ccccc1N [U0126]
- R5020-induced ACOT6 expression (control gene) ([2]; MEK kinase inhibition, U0126 5 uM): completely insensitive
- R5020-induced CHN2 and RGS2 expression [2, 7]: partially, but significantly, diminished
- R5020-induced PR Ser294 phosphorylation [4, 7]: blocked

Compound: C/C=C\[C@]1(O)CC[C@H]2[C@@H]3CCC4=CC(=O)CCC4=C3[C@@H](c3ccc(N(C)C)cc3)C[C@@]21C [aglepristone, (8S,11R,13S,14S,17R)-11-(4-dimethylaminophenyl)-17-hydroxy-13-methyl-17-[(Z)-prop-1-enyl]-1,2,6,7,8,11,12,14,15,16-decahydrocyclopenta[a]phenanthren-3-one]
- expression of progesterone-regulated PR target genes ([5]; 6 h): caused many PR target genes to become upregulated
- agonistic activity ([5]; cells expressing hyperactive / SUMO-deficient PR (KR)): substantial agonistic activity; also recorded: agonistic properties

Compound: CN(C)c1ccc([C@H]2C[C@]3(C)[C@@H](CC[C@]3(O)CCCO)[C@@H]3CCC4=CC(=O)CCC4=C32)cc1 [onapristone, (8S,11R,13R,14S,17S)-11-[4-(dimethylamino)phenyl]-17-hydroxy-17-(3-hydroxypropyl)-13-methyl-1,2,6,7,8,11,12,14,15,16-decahydrocyclopenta[a]phenanthren-3-one]
- number of the 29 KR>WT genes stimulated by onapristone treatment alone ([5]; KR cells, onapristone alone): none
- number of the 29 KR>WT genes stimulated by onapristone plus P4 treatment ([5]; KR cells, onapristone plus P4): 13 genes
- number of genes significantly differentially expressed, KR cells (onapristone plus progesterone) vs WT cells (ethanol) ([5]; KR treated with onapristone plus progesterone, WT treated with vehicle control): 5 genes
- expression of progesterone-regulated PR target genes ([5]; 6 h): did not cause these PR target genes to be upregulated; also recorded: do not stimulate gene expression
- number of genes significantly differentially expressed, WT cells (progesterone plus onapristone) vs WT cells (ethanol) ([5]; WT cells): only one gene
- number of genes significantly differentially expressed between KR and WT cells ([5]; both cell lines co-treated with progesterone plus the antiprogestin): 8 genes
- significant differential expression of the 15 biomarker genes between KR and WT cells ([5]; both cell lines co-treated with progesterone plus the antiprogestin, with the exception of one gene (CDH10)): completely annulled
- antagonist activity ([5]; cells expressing WT or KR PR): effective antagonist
- reversal of the effects of progesterone exposure ([5]; cells expressing activated PR (KR), onapristone in the presence of progesterone): can effectively reverse
- inhibition of expression of PR target genes ([5]; cells that express hyperactive PR (phosphorylated and deSUMOylated; KR)): can successfully inhibit
- reversal of transcriptional differences induced by progesterone ([5]; cells with a WT PR receptor, progesterone plus onapristone): almost completely reverse

Compound: CC(=O)[C@H]1CC[C@H]2[C@@H]3CCC4=CC(=O)CC[C@]4(C)[C@H]3CC[C@]12C [progesterone]
- gene expression after progesterone (P4) treatment ([5]; both WT and KR cells, progesterone 10^−8 M, 6 h): significantly upregulated

Compound: EGF: epidermal growth factor (Sigma) (NSDSECPLSHDGYCLHDGVCMYIEALDKYACNCVVGYIGERCQYRDLKWWELR; Epidermal growth factor; UniProt P01133 971-1023, looked up)
- MAP1A and RGS2 mRNA expression ([6]; EGF alone (100 ng/ml) over a 2-day time course): insensitive
- progestin stimulated mRNA expression of MAP1A and RGS2 ([6]; EGF pre-treatment (100 ng/ml) followed by R5020 10^−8 M): significantly augmented
